Assay results: ChEMBL document CHEMBL3232737, “Synthesis and in vitro evaluation of small-molecule [18F] labeled gonadotropin-releasing hormone (GnRH) receptor antagonists as potential PET imaging agents for GnRH receptor expression” (Bioorg Med Chem Lett, 2014)
One block for each compound: values may come before it.

How the values were obtained:
[1] = target: T1, Gonadotropin-releasing hormone receptor (Rattus norvegicus, UniProt P30969); experiment: Displacement of [125I]Triptorelin from rat full-length gonadotropin-releasing hormone receptor expressed in HEK293 cells; format: cell-based
T1 sequence (P30969 whole entry): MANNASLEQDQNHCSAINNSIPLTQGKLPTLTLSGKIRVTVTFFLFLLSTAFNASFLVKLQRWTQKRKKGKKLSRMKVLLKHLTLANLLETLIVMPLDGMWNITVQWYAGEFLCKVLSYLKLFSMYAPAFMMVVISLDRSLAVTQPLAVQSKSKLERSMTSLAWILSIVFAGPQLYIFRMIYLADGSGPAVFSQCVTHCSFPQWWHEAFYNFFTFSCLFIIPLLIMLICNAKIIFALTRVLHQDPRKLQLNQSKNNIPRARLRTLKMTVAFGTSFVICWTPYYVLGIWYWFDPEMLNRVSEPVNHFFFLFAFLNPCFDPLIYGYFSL

[2] = target: T2, Gonadotropin-releasing hormone receptor (Mus musculus, UniProt Q01776); experiment: Binding affinity to mouse gonadotropin-releasing hormone receptor by radioligand displacement assay
T2 sequence (Q01776 whole entry): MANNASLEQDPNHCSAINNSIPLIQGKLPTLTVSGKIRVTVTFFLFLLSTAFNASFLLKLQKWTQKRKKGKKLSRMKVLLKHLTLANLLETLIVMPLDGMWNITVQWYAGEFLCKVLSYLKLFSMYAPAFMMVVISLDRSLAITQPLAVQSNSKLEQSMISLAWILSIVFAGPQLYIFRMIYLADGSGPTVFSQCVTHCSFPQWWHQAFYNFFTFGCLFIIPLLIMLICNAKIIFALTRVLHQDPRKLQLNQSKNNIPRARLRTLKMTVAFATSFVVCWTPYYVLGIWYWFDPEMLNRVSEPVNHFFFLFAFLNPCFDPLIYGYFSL

[3] = target: T3, Gonadotropin-releasing hormone receptor (Homo sapiens, UniProt P30968); experiment: Binding affinity to human gonadotropin-releasing hormone receptor by radioligand displacement assay
T3 sequence (P30968 whole entry): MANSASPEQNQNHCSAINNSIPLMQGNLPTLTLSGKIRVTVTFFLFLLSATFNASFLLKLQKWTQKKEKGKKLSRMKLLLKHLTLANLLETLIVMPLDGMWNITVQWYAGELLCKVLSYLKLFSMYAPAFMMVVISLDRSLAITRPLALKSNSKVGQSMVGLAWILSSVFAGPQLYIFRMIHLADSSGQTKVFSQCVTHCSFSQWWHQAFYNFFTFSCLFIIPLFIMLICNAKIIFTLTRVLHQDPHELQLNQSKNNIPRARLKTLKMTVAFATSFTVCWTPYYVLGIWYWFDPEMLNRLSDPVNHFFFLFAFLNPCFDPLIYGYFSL

[4] = Octanol-PBS partition coefficient, log P of the compound at 10 kBq at pH 7.4 by gamma counting analysis; format: physicochemical

Ki [1]: 42 nM
SMILES: COc1nc(F)nc(OC)c1NC(=O)c1ccc(Oc2cc3c(cc2C)CCC3(C)C)o1

Ki [1]: 1.36 nM
SMILES: COc1nc(OCCF)nc(OC)c1NC(=O)c1ccc(Oc2cc3c(cc2C)CCC3(C)C)o1

Ki [2]: 2.2 nM
Ki [3]: 6 nM
SMILES: COc1cc(OC)c(NC(=O)c2ccc(Cc3cc4c(cc3C)C(C)(C)CCC4(C)C)o2)c(OC)c1

logD [4]: 1.74
SMILES: COc1nc(OCC[18F])nc(OC)c1NC(=O)c1ccc(Oc2cc3c(cc2C)CCC3(C)C)o1
